Assay results: ChEMBL document CHEMBL1201862, “PubChem BioAssay data set” (2004)
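Compound exposure: 48 hours, 5 concentrations, 96-well plates. GI50 marks 50% less growth.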 The source made the active and inactive calls. Cut-off read from the data, not from the text of the source: active = GI50 up to about 1.1 µM and inactive = higher.

How the values were obtained:
Test in all cases: inhibition of tumour cell growth, NCI panel, 48 h
HCC 2998 = system: HCC 2998
CAKI-1 = system: CAKI-1
SK-OV-3 = system: SK-OV-3
LOX IMVI = system: LOX IMVI
HOP-92 = system: HOP-92
COLO 205 = system: COLO 205
SK-MEL-5 = system: SK-MEL-5
NCI-H226 = system: NCI-H226
A498 = system: A498
UO-31 = system: UO-31
Malme-3M = system: Malme-3M
K562 = system: K562
MOLT-4 = system: MOLT-4
OVCAR-5 = system: OVCAR-5
SN12C = system: SN12C
M14 = system: M14
HOP-62 = system: HOP-62
RXF 393 = system: RXF 393
HCT-116 = system: HCT-116
MDA-MB-435 = system: MDA-MB-435

Measured: GI50

COC(=O)C1CCC2(CC1)NC(=O)NC2=O (stereo not drawn)
inactive: HCC 2998 > 100 µM | CAKI-1 > 100 µM | SK-OV-3 > 100 µM | LOX IMVI > 100 µM | HOP-92 > 100 µM | COLO 205 > 100 µM | SK-MEL-5 > 100 µM | NCI-H226 > 100 µM | A498 > 100 µM | UO-31 > 100 µM | Malme-3M > 100 µM | K562 > 100 µM | MOLT-4 > 100 µM | OVCAR-5 > 100 µM | SN12C > 100 µM | M14 > 100 µM | HOP-62 > 100 µM | RXF 393 > 100 µM | HCT-116 > 100 µM

CCCCCCCCSC(SCCCCCCCC)=C1C(=O)N(c2ccccc2)N=C1C
inactive: HCC 2998 71.3 µM | CAKI-1 26.9 µM | SK-OV-3 77.3 µM | LOX IMVI 17.7 µM | HOP-92 31.8 µM | COLO 205 24.7 µM | SK-MEL-5 47 µM | NCI-H226 64.4 µM | A498 24.3 µM | UO-31 27.5 µM | Malme-3M 53.6 µM | K562 28.7 µM | MOLT-4 28.4 µM | OVCAR-5 80.4 µM | SN12C 33.7 µM | M14 83 µM | HOP-62 46.5 µM | RXF 393 53.5 µM | HCT-116 14.8 µM

O=C(c1ccc2c3c(ccc(C(=O)C(F)(F)F)c13)CC2)C(F)(F)F
inactive: HCC 2998 > 100 µM | CAKI-1 > 100 µM | SK-OV-3 > 100 µM | LOX IMVI 55.7 µM | HOP-92 27 µM | COLO 205 21.5 µM | NCI-H226 > 100 µM | A498 47.9 µM | UO-31 43.2 µM | Malme-3M 52.4 µM | MOLT-4 61.4 µM | OVCAR-5 > 100 µM | SN12C 92.9 µM | M14 34.4 µM | HOP-62 72.1 µM | RXF 393 55.6 µM | HCT-116 69.2 µM

CC1(C)C2C=CC1C(=O)CC2 (stereo not drawn)
inactive: HCC 2998 > 100 µM | CAKI-1 > 100 µM | LOX IMVI > 100 µM | HOP-92 > 100 µM | SK-MEL-5 > 100 µM | NCI-H226 > 100 µM | A498 > 100 µM | UO-31 > 100 µM | Malme-3M > 100 µM | K562 > 100 µM | MOLT-4 > 100 µM | OVCAR-5 > 100 µM | M14 > 100 µM | HOP-62 > 100 µM | RXF 393 > 100 µM | HCT-116 > 100 µM

CCOC(=O)CCn1[nH]c(=O)c(Cl)c(Cl)c1=O
inactive: HCC 2998 > 100 µM | CAKI-1 > 100 µM | SK-OV-3 > 100 µM | LOX IMVI > 100 µM | HOP-92 > 100 µM | COLO 205 > 100 µM | SK-MEL-5 > 100 µM | NCI-H226 > 100 µM | A498 > 100 µM | UO-31 > 100 µM | Malme-3M > 100 µM | K562 > 100 µM | OVCAR-5 > 100 µM | SN12C > 100 µM | M14 > 100 µM | HOP-62 > 100 µM | RXF 393 > 100 µM | HCT-116 > 100 µM

COC(=O)/C=C\C1C(C(=O)OC)C2(C(=O)OC)CCC1(C(=O)OC)N2 (stereo not drawn)
inactive: HCC 2998 17.3 µM | CAKI-1 2.88 µM | SK-OV-3 17.9 µM | LOX IMVI 13.4 µM | HOP-92 4.81 µM | COLO 205 4.19 µM | SK-MEL-5 19.3 µM | NCI-H226 19.1 µM | A498 18.1 µM | UO-31 17 µM | Malme-3M 5.98 µM | K562 12 µM | MOLT-4 3.77 µM | OVCAR-5 20 µM | SN12C 16.3 µM | M14 14.9 µM | HOP-62 18.1 µM | RXF 393 7.21 µM | HCT-116 13.8 µM

COC(=O)C(C(=O)C(=O)Nc1c(Cl)cc([N+](=O)[O-])cc1Cl)c1csc(-n2nc(C3=CCCCC3)cc2-c2ccccc2)n1 (stereo not drawn)
inactive: HCC 2998 > 100 µM | CAKI-1 46.9 µM | SK-OV-3 34.3 µM | LOX IMVI 43.9 µM | HOP-92 10.1 µM | COLO 205 32.1 µM | NCI-H226 25.4 µM | A498 32.9 µM | UO-31 25.9 µM | Malme-3M > 100 µM | K562 48.5 µM | MOLT-4 52.2 µM | OVCAR-5 35 µM | SN12C 67.9 µM | M14 > 100 µM | HOP-62 64.9 µM | RXF 393 63.7 µM | HCT-116 42.5 µM

COC(=O)/C(=C1\OC(=O)C(c2ccc(Cl)cc2)=C1O)c1ccc(Cl)cc1
inactive: HCC 2998 28.7 µM | CAKI-1 23 µM | SK-OV-3 28.8 µM | LOX IMVI 21.3 µM | HOP-92 17.8 µM | COLO 205 18.9 µM | NCI-H226 21.8 µM | A498 16.9 µM | UO-31 28.7 µM | Malme-3M 16.2 µM | K562 27 µM | MOLT-4 22.5 µM | OVCAR-5 31.5 µM | SN12C 30.5 µM | M14 31.2 µM | HOP-62 17.7 µM | RXF 393 21.5 µM | HCT-116 19.8 µM

CN(C)CCN(C)C(=O)c1cccc2cccc(C(=O)O)c12
inactive: HCC 2998 > 100 µM | SK-OV-3 > 100 µM | LOX IMVI > 100 µM | HOP-92 > 100 µM | COLO 205 > 100 µM | SK-MEL-5 > 100 µM | NCI-H226 > 100 µM | A498 > 100 µM | UO-31 > 100 µM | Malme-3M > 100 µM | K562 > 100 µM | MOLT-4 > 100 µM | OVCAR-5 > 100 µM | SN12C > 100 µM | M14 > 100 µM | HOP-62 > 100 µM | RXF 393 > 100 µM | HCT-116 > 100 µM

COc1c2ccoc2c(S(=O)(=O)Nc2ccc(Cl)cc2)c2oc(C)cc(=O)c12
inactive: HCC 2998 > 100 µM | CAKI-1 > 34.9 µM | SK-OV-3 > 100 µM | LOX IMVI > 100 µM | HOP-92 41.9 µM | COLO 205 > 100 µM | SK-MEL-5 > 79.8 µM | NCI-H226 > 81.1 µM | A498 54.6 µM | UO-31 > 50.9 µM | Malme-3M 96.6 µM | K562 > 100 µM | MOLT-4 > 100 µM | OVCAR-5 > 100 µM | SN12C > 83.4 µM | HOP-62 > 89.5 µM | RXF 393 25.1 µM | HCT-116 36 µM

COc1ccc(-c2cc(-c3ccco3)c(C#N)c(=O)[nH]2)cc1
inactive: HCC 2998 > 100 µM | SK-OV-3 23.2 µM | LOX IMVI > 100 µM | HOP-92 > 100 µM | COLO 205 > 100 µM | SK-MEL-5 > 10 µM | NCI-H226 > 100 µM | A498 28.2 µM | UO-31 > 100 µM | Malme-3M 29.8 µM | K562 > 100 µM | MOLT-4 > 100 µM | OVCAR-5 > 100 µM | SN12C 32.1 µM | M14 > 100 µM | HOP-62 15.7 µM | RXF 393 45.1 µM | HCT-116 40.3 µM

CC(=O)OCC1OC(n2cnc3c(I)nc(I)nc32)C(OC(C)=O)C1OC(C)=O (stereo not drawn)
inactive: HCC 2998 5.21 µM | CAKI-1 2.02 µM | LOX IMVI 14 µM | HOP-92 3.18 µM | SK-MEL-5 13.3 µM | NCI-H226 19.4 µM | A498 22.2 µM | UO-31 17.7 µM | Malme-3M 18.7 µM | K562 3.69 µM | MOLT-4 8.13 µM | OVCAR-5 20.8 µM | SN12C 13.5 µM | M14 17.2 µM | HOP-62 18.8 µM | RXF 393 17.3 µM | HCT-116 4.91 µM

COC1=CC(=O)[C@]2(C)[C@H](C1=O)C(C)[C@H]2c1ccccc1 (stereo partly drawn)
inactive: HCC 2998 > 100 µM | CAKI-1 > 100 µM | SK-OV-3 > 100 µM | LOX IMVI > 100 µM | HOP-92 > 100 µM | COLO 205 > 100 µM | SK-MEL-5 > 100 µM | NCI-H226 > 100 µM | A498 > 100 µM | UO-31 > 100 µM | Malme-3M > 100 µM | K562 > 100 µM | MOLT-4 > 100 µM | OVCAR-5 > 100 µM | M14 > 100 µM | HOP-62 > 100 µM | RXF 393 > 100 µM

CS(=O)(=O)c1ccc2nc(-c3ccc(O)cc3)sc2c1
inactive: MDA-MB-435 18 µM | CAKI-1 17.6 µM | SK-OV-3 17.5 µM | LOX IMVI 22.1 µM | COLO 205 22.2 µM | SK-MEL-5 17.4 µM | NCI-H226 18.5 µM | A498 16.4 µM | UO-31 14.8 µM | Malme-3M 16.7 µM | K562 33.8 µM | MOLT-4 35.6 µM | OVCAR-5 17.7 µM | SN12C 17.5 µM | M14 21.6 µM | RXF 393 16.9 µM | HCT-116 16.8 µM

O=C(C#Cc1cnc(O)nc1O)c1ccccc1Cl
inactive: HCC 2998 16.9 µM | CAKI-1 17.1 µM | SK-OV-3 51.3 µM | LOX IMVI 13.4 µM | HOP-92 19.7 µM | COLO 205 15.7 µM | SK-MEL-5 15 µM | NCI-H226 28.8 µM | A498 17.9 µM | UO-31 21 µM | Malme-3M 13.3 µM | K562 4.83 µM | MOLT-4 10.3 µM | OVCAR-5 19.7 µM | SN12C 14.1 µM | M14 15.5 µM | HOP-62 > 100 µM | RXF 393 3.07 µM | HCT-116 14.4 µM
